Experimental data from patent US9796700B2 (Celgene CAR LLC, priority 2013, dated 2017).
Like-named read-outs stand apart in the source and are kept apart here.

Tests used:
[1] = system: ERK1 phosphorylation of its substrate RSK in HT29 cells; experiment: pRSK MSD Assay in HT29 cells; format: cell-based
Procedure: The protocol below describes an assay to measure the kinase activity of ERK1 to phosphorylate its substrate, RSK, in the presence of a test compound. This experiment was conducted using a Mesoscale Discovery plate. The day before the assay, HT29 cells were split and plated at 50,000 cells/well in complete growth media. After allowing cells to adhere, the media was removed and replaced with media containing 0.1% FBS and incubated overnight. Blank MDS plates were coated with 25 μl/well RSK capture antibody and incubated at 4° C. overnight. The next day, the media was removed and replaced with 100 μl of media containing a test compound and incubated for 120 minutes at 37° C. The media was removed and replaced with 55 μl of well lysis buffer with protease and phosphatase inhibitors provided in the kit, followed by incubation at 4° C. for 30 minutes. 50 μl of lysate was transferred to a blocked MSD plate, followed by incubation at room temperature for 2 hours under constant shaking. The plate was washed 3 times with MSD wash buffer (cat#R617TX), and 25 μl/well phospho-RSK (pRSK) detection antibody was added with an appropriate Sulfo-tagged anti-species detection antibody diluted in 1% BSA in MSD wash buffer. This mixture was incubated for 1 hour at room temperature under constant shaking. The plate was washed 3 times, and 150 μl 1×MSD read buffer was added, followed by signal detection in an MSD plate reader.

MEK1 activated ERK1 = MEK1 activated ERK1 (Homo sapiens (Human), UniProt P27361); experiment: Omnia continuous-read kinase assay for potency against MEK1 activated ERK1; format: biochemical; conditions: MEK1 activated ERK1, WT, ATP at KM
How it was run: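 Apparent IC50 came from initial reaction slopes (RFU vs time) plotted against log inhibitor with a variable-slope fit. Reactions were started with ERK1 (4 nM final) added to 50 μM ATP, roughly at its appKM, and 10 μM Sox-conjugated ST17 peptide in 20 mM Tris pH 7.5, 5 mM MgCl2. Fluorescence was monitored every 71 seconds.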

Erk1 = Erk1 (Homo sapiens (Human), UniProt P27361); experiment: Protein Mass Modification Assay (intact protein MALDI); format: binding
How it was run: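 Human Erk1 was incubated 60 min at room temperature with a 10-fold molar excess of compound, then analysed as intact protein by MALDI with sinapinic acid matrix. The centroid mass shift versus untreated protein was divided by compound molecular weight to give percent modified protein.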

[2] = Homo sapiens, HT-29, HT29 cells, read-out: ERK1 PRSK MSD HT29 EC50
[3] = HT29 cells, read-out: ERK1 PRSK MSD HT29 EC50

MEK1 activated ERK1, sequence (P27361 whole entry): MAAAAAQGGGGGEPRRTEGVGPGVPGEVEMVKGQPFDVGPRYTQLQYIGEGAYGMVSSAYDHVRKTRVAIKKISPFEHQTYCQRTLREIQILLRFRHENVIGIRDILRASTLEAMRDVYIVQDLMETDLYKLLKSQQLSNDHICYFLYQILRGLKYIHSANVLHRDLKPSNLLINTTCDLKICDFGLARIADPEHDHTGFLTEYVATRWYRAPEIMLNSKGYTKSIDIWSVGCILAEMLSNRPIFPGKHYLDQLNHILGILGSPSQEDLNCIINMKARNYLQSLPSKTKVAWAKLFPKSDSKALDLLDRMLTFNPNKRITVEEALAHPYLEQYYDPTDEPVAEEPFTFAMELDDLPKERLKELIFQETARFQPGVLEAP
Erk1, sequence (P27361 whole entry, looked up): as the sequence (P27361 whole entry) above

Row | Compound | EC50 [1, 2] [nM] | IC50 (MEK1 activated ERK1) [nM] | ERK1 Mass Mod (%) (Erk1) | EC50 [1, 3] [nM] | EC50 ([1]; Homo sapiens, HT-29, read-out: ERK1 PRSK MSD HT29 EC50 (nM)) [nM]
1 | C=CC(=O)Nc1ccccc1Nc1nc(NC2CCC(=O)CC2)ncc1C(F)(F)F [Compound I-23, N-(2-((2-((4-Oxocyclohexyl)amino)-5-(trifluoromethyl)pyrimidin-4-yl)amino)phenyl)acrylamide] | 101 to 500 | < 100 | E (provided a mass modification of ≧70%) | – | –
2 | C=C(C)S(=O)(=O)Nc1ccccc1Nc1nc(NC2CCC(=O)CC2)ncc1C(F)(F)F [Compound I-40, N-(2-((2-((4-Oxocyclohexyl)amino)-5-(trifluoromethyl)pyrimidin-4-yl)amino)phenyl)prop-1-ene-2-sulfonamide] | > 1000 | < 100 | F (provided a mass modification of 31-69%) | – | –
3 | C=CC(=O)Nc1cc(C)ccc1Nc1nc(N[C@H]2CCCN(C(=O)CC)C2)ncc1C(F)(F)F [Compound I-41, (S)—N-(5-Methyl-2-((2-((1-propionylpiperidin-3-yl)amino)-5-(trifluoromethyl)pyrimidin-4-yl)amino)phenyl)acrylamide] | 101 to 500 | < 100 | E (provided a mass modification of ≧70%) | – | –
4 | C/C=C/S(=O)(=O)Nc1cc(F)ccc1Nc1nc(N[C@H]2CCCN(C(=O)CO)C2)ncc1C(F)(F)F [Compound I-48, (S,E)-N-(5-Fluoro-2-((2-((1-(2-hydroxyacetyl)piperidin-3-yl)amino)-5-(trifluoromethyl)pyrimidin-4-yl)amino)phenyl)prop-1-ene-1-sulfonamide] | > 1000 | < 100 | G (proived a mass modification ≦30%) | – | –
5 | C=C(C)S(=O)(=O)Nc1cc(F)ccc1Nc1nc(Nc2cc(C(N)=O)ccc2C)ncc1C(F)(F)F [Compound I-87, 3-((4-((4-Fluoro-2-(1-methylvinylsulfonamido)phenyl)amino)-5-(trifluoromethyl)pyrimidin-2-yl)amino)-4-methylbenzamide] | 101 to 500 | – | G (proived a mass modification ≦30%) | – | –
6 | C=CC(=O)Nc1ccccc1Nc1nc(Nc2cc(OC)nc(N3CCN(C(C)=O)CC3)c2)ncc1C(F)(F)F [Compound I-92] | < 100 | – | E (provided a mass modification of ≧70%) | – | –
7 | C=CC(=O)Nc1cc(C)ccc1Nc1nc(Nc2cc(OC)nc(OC)c2)ncc1C(F)(F)F [Compound I-96] | – | – | E (key: E: provided a mass modification of ≧70%; F: provided a mass modification of 31-69%; G: proived a mass modification ≦30%) | – | < 100
8 | C=CC(=O)Nc1ccccc1Nc1nc(N[C@H]2CC[C@H](O)CC2)ncc1Cl [Compound I-101] | 101 to 500 | – | E (provided a mass modification of ≧70%) | – | –
9 | C=CC(=O)Nc1ccccc1Nc1nc(NC2CCOCC2)ncc1Cl [Compound I-108, N-(2-((5-chloro-2-((tetrahydro-2H-pyran-4-yl)amino)pyrimidin-4-yl)amino)phenyl) acrylamide] | < 100 | < 100 | E (provided a mass modification of ≧70%) | – | –
10 | C=CC(=O)Nc1ccccc1Nc1nc(N[C@H]2CC[C@@H](O)CC2)ncc1C(F)(F)F [Compound I-109, N-(2-((2-(cis-(4-hydroxycyclohexyl)amino)-5-(trifluoromethyl)pyrimidin-4-yl)amino)phenyl) acrylamide] | – | – | E (provided a mass modification of ≧70%) | > 1000 | –
11 | C=CC(=O)Nc1ccccc1Nc1nc(N[C@H]2CC[C@@H](F)CC2)ncc1C(F)(F)F [Compound I-110, N-(2-((2-(cis-(4-fluorocyclohexyl)amino)-5-(trifluoromethyl)pyrimidin-4-yl)amino)phenyl)acrylamide] | 101 to 500 | 101 to 500 | E (provided a mass modification of ≧70%) | – | –
12 | C=CC(=O)Nc1ccccc1Nc1nc(N[C@H]2CC[C@H](F)CC2)ncc1C(F)(F)F [Compound I-111, N-(2-((2-(trans-(4-fluorocyclohexyl)amino)-5-(trifluoromethyl)pyrimidin-4-yl)amino)phenyl)acrylamide] | – | 101 to 500 | E (provided a mass modification of ≧70%) | 101 to 500 | –
13 | C=CC(=O)Nc1cc(Cl)ccc1Nc1nc(Nc2cc(OC)ncc2C)ncc1Cl [Compound I-248, N-(5-chloro-2-((5-chloro-2-((2-methoxy-5-methylpyridin-4-yl)amino)pyrimidin-4-yl)amino)phenyl)acrylamide] | 101 to 500 | < 100 | E (provided a mass modification of ≧70%) | – | –

More lines, main results first:

Row | EC50 [1, 2] [nM] | IC50 (MEK1 activated ERK1) [nM] | ERK1 Mass Mod (%) (Erk1) | EC50 [1, 3] [nM] | Compound | EC50 ([1]; Homo sapiens, HT-29, read-out: ERK1 PRSK MSD HT29 EC50 (nM)) [nM]
14 | > 1000 | > 1000 | G (proived a mass modification ≦30%) | – | CC(C)=CC(=O)c1ccccc1Oc1nc(Nc2ccc(F)cc2C)ncc1C(N)=O [Compound I-272, 2-((4-fluoro-2-methylphenyl)amino)-4-(2-(3-methylbut-2-enoyl)phenoxy)pyrimidine-5-carboxamide] | –
15 | > 1000 | – | E (provided a mass modification of ≧70%) | – | C=CC(=O)Nc1cc(C)ccc1Nc1nc(N[C@H]2CCN(S(=O)(=O)C=C)C2)ncc1C(F)(F)F [Compound I-279, (S)—N-(5-Methyl-2-((5-(trifluoromethyl)-2-((1-(vinylsulfonyl)pyrrolidin-3-yl)amino)pyrimidin-4-yl)amino)phenyl)acrylamide] | –
16 | > 1000 | > 1000 | – | – | CCC(=O)Nc1ccccc1Nc1nc(Nc2ccc(N(CC)C(C)=O)cc2C#N)ncc1Cl [Compound I-316, N-(2-((5-chloro-2-((2-cyano-4-(N-ethylacetamido)phenyl)amino)pyrimidin-4-yl)amino)phenyl)propionamide] | –
17 | 101 to 500 | < 100 | E (provided a mass modification of ≧70%) | – | C=CC(=O)Nc1ccccc1Nc1nc(Nc2cc(OC)nc(N3CCN(C)CC3)c2)ncc1C(F)(F)F [Compound I-324, N-(2-((2-((2-methoxy-6-(4-methylpiperazin-1-yl)pyridin-4-yl)amino)-5-(trifluoromethyl)pyrimidin-4-yl)amino)phenyl)acrylamide] | –
18 | > 1000 | > 1000 | E (provided a mass modification of ≧70%) | – | C=CC(=O)Nc1ccccc1Nc1nc(Nc2c[nH]nc2C)ncc1C(F)(F)F [Compound I-330, N-(2-((2-((3-methyl-1H-pyrazol-4-yl)amino)-5-(trifluoromethyl)pyrimidin-4-yl)amino)phenyl)acrylamide] | –
19 | 101 to 500 | > 1000 | E (provided a mass modification of ≧70%) | – | C=CC(=O)Nc1cc(C)ccc1Nc1nc(Nc2cnnc(Cl)c2)ncc1C(F)(F)F [Compound I-331, N-(2-((2-((6-chloropyridazin-4-yl)amino)-5-(trifluoromethyl)pyrimidin-4-yl)amino)-5-methylphenyl)acrylamide] | –
20 | 101 to 500 | > 1000 | E (provided a mass modification of ≧70%) | – | C=CC(=O)Nc1cc(C)ccc1Nc1nc(Nc2cc(OC)cc(OC)c2)ncc1C(F)(F)F [Compound I-339, N-(2-((2-((3,5-dimethoxyphenyl)amino)-5-(trifluoromethyl)pyrimidin-4-yl)amino)-5-methylphenyl)acrylamide] | –
21 | < 100 | < 100 | E (provided a mass modification of ≧70%) | – | C=CC(=O)Nc1cc(C)ccc1Nc1nc(Nc2nc(OC)ncc2Cl)ncc1C(F)(F)F [Compound I-344, N-(2-((2-((5-chloro-2-methoxypyrimidin-4-yl)amino)-5-(trifluoromethyl)pyrimidin-4-yl)amino)-5-methylphenyl)acrylamide] | –
22 | 101 to 500 | 101 to 500 | E (provided a mass modification of ≧70%) | – | C=CC(=O)Nc1cc(C)ccc1Nc1nc(Nc2nc(OC)ncc2C)ncc1C(F)(F)F [Compound I-347, N-(2-((2-((2-methoxy-5-methylpyrimidin-4-yl)amino)-5-(trifluoromethyl)pyrimidin-4-yl)amino)-5-methylphenyl)acrylamide] | –
23 | 501 to 999 | > 1000 | G (proived a mass modification ≦30%) | – | C=CC(=O)Nc1cc(C)ccc1Nc1nc(Nc2cc(OC)ncn2)ncc1C(F)(F)F [Compound I-348, N-(2-((2-((6-methoxypyrimidin-4-yl)amino)-5-(trifluoromethyl)pyrimidin-4-yl)amino)-5-methylphenyl)acrylamide] | –
24 | > 1000 | > 1000 | G (proived a mass modification ≦30%) | – | CCC(=O)Nc1cc(C)ccc1Nc1nc(Nc2cc(OC)ncc2C)ncc1C(F)(F)F [Compound I-352, N-(2-((2-((2-methoxy-5-methylpyridin-4-yl)amino)-5-(trifluoromethyl)pyrimidin-4-yl)amino)-5-methylphenyl)propionamide] | –
